Patent US8362000B2, “Azetidinyl diamides as monoacylglycerol lipase inhibitors” (Janssen Pharmaceutica NV, priority 2009, dated 2013)
Where a chain is given by its changes, count along the chain named. Read-outs that look alike come from different tables or passages of the source.

Legend:
mutant MGL = target: T1, mutant MGL (Homo sapiens, UniProt Q99685, L169S/L176S); assay: MGL ThermoFluor assay - mutant; assay type: binding
T1 sequence (Q99685 1-303 L169S/L176S): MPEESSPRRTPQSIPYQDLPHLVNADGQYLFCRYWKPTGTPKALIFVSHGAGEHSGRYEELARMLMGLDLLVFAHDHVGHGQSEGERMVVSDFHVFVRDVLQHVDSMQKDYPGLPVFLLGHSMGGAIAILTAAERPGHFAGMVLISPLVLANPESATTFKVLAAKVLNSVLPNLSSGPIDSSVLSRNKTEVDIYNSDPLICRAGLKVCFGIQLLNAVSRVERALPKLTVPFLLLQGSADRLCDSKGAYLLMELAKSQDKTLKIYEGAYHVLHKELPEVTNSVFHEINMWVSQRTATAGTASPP

MGL = target: T2, MGL (Rattus norvegicus, UniProt Q8R431); assay: 2-AG accumulation assay in rat brain homogenate; assay type: biochemical; details: rat brain homogenate, 2-AG accumulation as percent of vehicle; for 2-AG accumulation, % of vehicle control at 1 µM: compound 1 μM, read-out: Rat Brain 2AG % VehCntrl (%) @ 1 μM
T2 construct: one g rat brain was homogenized using a Polytron homogenizer; from tissue; host or cells: rat brain homogenate
T2 sequence (Q8R431 1-303): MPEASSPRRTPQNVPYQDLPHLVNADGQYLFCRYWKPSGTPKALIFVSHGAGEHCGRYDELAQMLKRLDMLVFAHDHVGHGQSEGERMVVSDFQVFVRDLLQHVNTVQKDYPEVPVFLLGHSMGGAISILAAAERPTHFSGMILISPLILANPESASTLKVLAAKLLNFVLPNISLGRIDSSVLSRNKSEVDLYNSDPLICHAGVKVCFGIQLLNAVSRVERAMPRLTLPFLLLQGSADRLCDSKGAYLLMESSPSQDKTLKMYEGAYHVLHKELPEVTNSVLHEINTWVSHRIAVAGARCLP

[1] = target: T3, purified wild type MGL (wt-MGLL 6H-11-313) (Homo sapiens, UniProt Q99685)
T3 sequence (Q99685 1-303): T1 sequence (Q99685 1-303 L169S/L176S) with S169L, S176L

[2] = ThermoFluor concentration-response, read-out: MGL mutant ThermoFluor Kd
[3] = ThermoFluor, compound concentration measured by qNMR, read-out: MGL mutant ThermoFluor qKd (using qNMR conc.)
[4] = compound concentration measured by qNMR, read-out: MGL mutant ThermoFluor qKd (using qNMR conc.)
[5] = ThermoFluor thermal stability binding assay, read-out: MGL mutant ThermoFluor Kd
[6] = ThermoFluor, compound concentration measured by qNMR, read-out: MGL mutant ThermoFluor qKd (μM) (using qNMR conc.)

Structure (SMILES) | Kd (mutant MGL; [2]) [µM] | 2-AG accumulation, % of vehicle control at 1 µM (MGL) [%] | IC50 [1] [nM] | also measured
O=C(c1cscn1)N1CCN(C2CN(C(=O)c3sc4ccc(Cl)cc4c3C(F)(F)F)C2)CC1 [Cpd 673] | 0.05 | 280 | 17 | –
COc1ccc(-n2ccc3cc(C(=O)N4CC(N5CCN(C(=O)c6ccc[nH]6)CC5)C4)ccc32)cn1 [Cpd 1176, 1-(6-Methoxypyridin-3-yl)-5-({3-[4-(1H-pyrrol-2-ylcarbonyl)piperazin-1-yl]azetidin-1-yl}carbonyl)-1H-indole] | – | 378 | 70 | Kd (mutant MGL; [3]): 0.161 µM
O=C(c1ccc(F)cc1)c1c[nH]c2cc(C(=O)N3CC(N4CCN(C(=O)c5nccs5)CC4)C3)ccc12 [Cpd 1025] | – | 851 | 19 | Kd (mutant MGL; [4]): 0.066 µM
O=C(c1ccc(Oc2cccc(C(F)(F)F)c2)cc1)N1CC(N2CCN(C(=O)c3nccs3)CC2)C1 [Cpd 424, 1-(1,3-Thiazol-2-ylcarbonyl)-4-[1-({4-[3-(trifluoromethyl)phenoxy]phenyl}carbonyl)azetidin-3-yl]piperazine] | 0.00941 | 436 | < 5 | –
O=C(c1cscn1)N1CCN(C2CN(C(=O)c3ccc(-c4ccc(F)c(Cl)c4)cc3Cl)C2)CC1 [Cpd 265, 1-{1-[(3,3′-Dichloro-4′-fluorobiphenyl-4-yl)carbonyl]azetidin-3-yl}-4-(1,3-thiazol-4-ylcarbonyl)piperazine] | – | 162 | 19 | Kd (mutant MGL; [5]): 0.0198 µM; 2-AG accumulation, % of vehicle control at 0.1 µM (MGL; compound 0.1 μM, read-out: Rat Brain 2AG % VehCntrl (%) @ 0.1 μM): 126%; 2-AG accumulation, % of vehicle control at 10 µM (MGL; compound 10 μM, read-out: Rat Brain 2AG % VehCntrl (%) @ 10 μM): 643%
O=C(c1ccc2c(ccn2-c2ccc(C(F)(F)F)cc2)c1)N1CCN(C2CN(C(=O)c3ccc[nH]3)C2)CC1 [Cpd 1120, 5-({4-[1-(1H-Pyrrol-2-ylcarbonyl)azetidin-3-yl]piperazin-1-yl}carbonyl)-1-[4-(trifluoromethyl)phenyl]-1H-indole] | – | 867 | 18 | Kd (mutant MGL; [3]): 0.02 µM
Cc1sc(C(=O)N2CC(N3CCN(C(=O)c4nccs4)CC3)C2)cc1-c1ccc(F)cc1 [Cpd 1096] | – | 449 | 11 | Kd (mutant MGL; [6]): 0.08 µM
O=C(c1ccccc1)N1CCN(C2CN(C(=O)c3ccc4c(ccn4-c4cc(F)c(F)c(F)c4)c3)C2)CC1 [Cpd 569] | – | 198 | 21 | Kd (mutant MGL; [6]): 0.059 µM
O=C(c1ccc2nc(-c3ccc(F)c(F)c3)oc2c1)N1CC(N2CCN(C(=O)c3cscn3)CC2)C1 [Cpd 1178] | – | 292 | 71 | Kd (mutant MGL; [6]): 0.238 µM
Cn1nc(-c2cccc(F)c2)c2cc(C(=O)N3CC(N4CCN(C(=O)c5nccs5)CC4)C3)ccc21 [Cpd 1170] | 0.014 | 258 | 59 | –
O=C(c1ccccc1)N1CCN(C2CN(C(=O)c3ccc(Cc4ccc(C(F)(F)F)cc4)cc3)C2)CC1 [Cpd 771] | 0.05 | 465 | 7 | –
O=C(c1ccc2c(c1)CCN(c1ncccn1)C2)N1CC(N2CCN(C(=O)c3nccs3)CC2)C1 [Cpd 668] | – | 679 | 15 | Kd (mutant MGL; [5]): 0.025 µM
O=C(c1ccc2c(c1)CCN2c1ccc(F)cc1)N1CC(N2CCN(C(=O)c3ccc[nH]3)CC2)C1 [Cpd 1099] | – | 508 | 12 | Kd (mutant MGL; [4]): 0.02 µM
O=C(c1ccc(-c2ccc(C(F)(F)F)s2)cc1)N1CC(N2CCN(C(=O)c3nccs3)CC2)C1 [Cpd 1361, 1-(1,3-Thiazol-2-ylcarbonyl)-4-[1-({4-[5-(trifluoromethyl)thiophen-2-yl]phenyl}carbonyl)azetidin-3-yl]piperazine] | 0.003 | 994 | < 5 | –
O=C(c1ccc2c(cnn2-c2ccccc2)c1)N1CC(N2CCN(C(=O)c3cscn3)CC2)C1 [Cpd 1163, 1-Phenyl-5-({3-[4-(1,3-thiazol-4-ylcarbonyl)piperazin-1-yl]azetidin-1-yl}carbonyl)-1H-indazole] | 0.073 | 244 | 48 | –
O=C(c1ccc[nH]1)N1CCN(C2CN(C(=O)c3nn(-c4ccc(Cl)cc4Cl)c4c3CCC/C4=C\c3ccc(Cl)cc3)C2)CC1 [Cpd 1019] | 0.166 | 287 | 6 | Kd (mutant MGL; [4]): 0.132 µM
O=C(c1nccs1)N1CCN(C2CN(C(=O)c3sc4cc(F)c(C(F)(F)F)cc4c3Cl)C2)CC1 [Cpd 901, 1-(1-{[3-Chloro-6-fluoro-5-(trifluoromethyl)-1-benzothiophen-2-yl]carbonyl}azetidin-3-yl)-4-(1,3-thiazol-2-ylcarbonyl)piperazine] | – | 816 | < 5 | Kd (mutant MGL; [6]): 0.001 µM
O=C(c1nccs1)N1CCN(C2CN(C(=O)c3cccc4c3ccn4-c3ccc(F)cc3)C2)CC1 [Cpd 1320, 1-(4-Fluorophenyl)-4-({3-[4-(1,3-thiazol-2-ylcarbonyl)piperazin-1-yl]azetidin-1-yl}carbonyl)-1H-indole] | – | 823 | < 5 | Kd (mutant MGL; [6]): 0.015 µM
O=C(c1ccccc1)N1CCN(C2CN(C(=O)c3cc4c(C(F)(F)F)cccc4s3)C2)CC1 [Cpd 330, 1-(Phenylcarbonyl)-4-(1-{[4-(trifluoromethyl)-1-benzothiophen-2-yl]carbonyl}azetidin-3-yl)piperazine] | – | 197 | 308 | Kd (mutant MGL; [5]): 0.438 µM
C/C(=C\c1ccc(Cl)cc1)c1c(C)c(C(=O)N2CC(N3CCN(C(=O)c4ccc[nH]4)CC3)C2)nn1-c1ccc(Cl)cc1Cl [Cpd 1011] | 0.124 | 994 | < 5 | –
O=C(c1cccc(-c2ccccc2C(F)(F)F)c1)N1CC(N2CCN(C(=O)c3cscn3)CC2)C1 [Cpd 1185] | 1.32 | 241 | 88 | –
O=C(c1ccc2c(c1)CCN(C(=O)C1CCC(C(F)(F)F)CC1)C2)N1CC(N2CCN(C(=O)c3nccs3)CC2)C1 (stereo not drawn) [Cpd 685] | – | 756 | 33 | Kd (mutant MGL; [5]): 0.067 µM
O=C(c1ccc(-c2nc(-c3ccc(Cl)cc3Cl)cs2)cc1)N1CC(N2CCN(C(=O)c3nccs3)CC2)C1 [Cpd 1329] | 0.006 | 834 | < 5 | –
Cn1cc(Cc2ccc(F)cc2)c2ccc(C(=O)N3CC(N4CCN(C(=O)c5ccc[nH]5)CC4)C3)cc21 [Cpd 1028] | – | 647 | 16 | Kd (mutant MGL; [4]): 0.011 µM
CCC(C)(C)c1ccc(C(=O)N2CC(N3CCN(C(=O)c4nccs4)CC3)C2)cc1 [Cpd 887] | 0.009 | 270 | < 5 | –
O=C(c1ccc2c(-c3ccc(C(F)(F)F)cc3)c[nH]c2c1)N1CC(N2CCN(C(=O)c3cscn3)CC2)C1 [Cpd 1344] | 0.01 | 543 | < 5 | –
O=C(c1nccs1)N1CCN(C2CN(C(=O)c3sc4ccc(-c5ccccc5)cc4c3F)C2)CC1 [Cpd 1315, 1-{1-[(3-Fluoro-5-phenyl-1-benzothiophen-2-yl)carbonyl]azetidin-3-yl}-4-(1,3-thiazol-2-ylcarbonyl)piperazine] | 0.002 | 486 | < 5 | –
COc1cc(C(=O)N2CC(N3CCN(C(=O)c4cscn4)CC3)C2)ccc1-c1ccc(Cl)c(C(F)(F)F)c1 [Cpd 262, 1-(1-{[4′-Chloro-2-methoxy-3′-(trifluoromethyl)biphenyl-4-yl]carbonyl}azetidin-3-yl)-4-(1,3-thiazol-4-ylcarbonyl)piperazine] | – | 386 | < 5 | Kd (mutant MGL; [5]): 0.0025 µM
